Like-named read-outs stand apart in the source and are kept apart here. Residues, ends and D or L forms follow the SMILES beside them.
What was measured:
[1] = test system: R. gilardii; assay: Biolog Phenotype Microarray PM1-2 growth on carbon sources; format: cell-based, Roseomonas gilardii
Experimental: (§1) Using Phenotype Microarray (PM) panels (Biolog), the influence of 190 carbon sources on the growth of the potential probiotic species R. mucilaginosa, R. dentocariosa, R. gilardii, G. haemolysans, and common respiratory pathogens P. aeruginosa, and S. aureus was determined. PM1 and PM2 panels (Biolog) were inoculated according to the manufacturer's instructions. Growth curves were generated for 35 hours by measuring the absorbance at 590 nm using an EnVision (Perkin Elmer) plate reader.

[2] = test system: R. dentocariosa; assay: as above; format: cell-based, Rothia dentocariosa; conditions: for AUC of growth curve, R. dentocariosa: 35 hours, absorbance 590 nm, n = 1, cells without values AUC < 50; for growth of R. dentocariosa on the carbon source (in words): AUC lower than 50 = not supporting growth
Experimental: as §1

[3] = test system: R. mucilaginosa; assay: as above; format: cell-based, Rothia mucilaginosa; conditions: for AUC of growth curve, R. mucilaginosa: 35 hours, absorbance 590 nm, n = 1, cells without values AUC < 50; for growth of R. mucilaginosa on the carbon source (in words): AUC lower than 50 = not supporting growth
Experimental: as §1

[4] = test system: S. aureus; format: cell-based, Staphylococcus aureus
Experimental: as §1

[5] = test system: P. aeruginosa; assay: Biolog Phenotype Microarray PM1-2 growth on carbon sources; format: cell-based, Pseudomonas aeruginosa; conditions: for growth of P. aeruginosa on the carbon source (in words): AUC lower than 50 = not supporting growth
Experimental: as §1

[6] = test system: G. haemolysans; assay: as above; format: cell-based, Gemella haemolysans; conditions: for growth of G. haemolysans on the carbon source (in words): AUC lower than 50 = not supporting growth
Experimental: as §1

[7] = 35 hours, absorbance 590 nm, n = 1, cells without values AUC < 50

Compound | AUC of growth curve, R. gilardii [1, 7] | AUC of growth curve, R. dentocariosa [2] | AUC of growth curve, R. mucilaginosa [3] | AUC of growth curve, S. aureus [4] | AUC of growth curve, P. aeruginosa [5, 7] | AUC of growth curve, G. haemolysans [6, 7] | growth of P. aeruginosa on the carbon source (in words) [5] | also measured
O=CC(=O)O [Glyoxylic Acid] | 85.2 | 53.5 | 142.0 | – | – | – | – | –
C[C@H](N)C(=O)NCC(=O)O [L-Alanyl-Glycine] (H-Ala-Gly-OH) | – | – | – | 809.1 | – | – | – | AUC of growth curve, R. gilardii [1]: 76.2; AUC of growth curve, P. aeruginosa [5]: 180.2; AUC of growth curve, G. haemolysans [6]: 114.6
O=C[C@H](O)[C@@H](O)[C@@H](O)CO [L-Arabinose] | 804.7 | 314.8 | 195.3 | 356.7 | 1269.0 | 120.4 | – | –
C[C@H](O)[C@@H](O)[C@@H](O)[C@H](O)C=O [L-Fucose] | 86.6 | 478.0 | 155.6 | 277.6 | 701.4 | 95.6 | – | –
C[C@H](O)C(=O)O [L-Lactic Acid] | 70.3 | 632.8 | 292.5 | 773.2 | 349.6 | – | – | –
O=C(O)C[C@H](O)C(=O)O [L-Malic Acid] | 202.5 | – | – | 648.8 | 808.2 | 73.9 | – | –
N[C@@H](Cc1ccccc1)C(=O)O [L-Phenylalanine] | – | – | – | 167.3 | – | 64.4 | – | –
COC(=O)C(C)=O [Methyl Pyruvate] | – | 74.1 | – | 611.5 | 818.7 | 870.9 | – | –
CC(=O)N[C@H]1C(O)O[C@H](CO)[C@@H](O)[C@@H]1O (stereo partly drawn) [N-Acetyl-D-Glucosamine] | – | – | – | 643.5 | – | 711.9 | did not support growth | growth of G. haemolysans on the carbon source (in words) [6]: supported growth
CC(=O)N[C@H]1[C@@H](O)[C@H](O)[C@@H](CO)O[C@H]1O [N-Acetyl-β-D-Mannosamine] | – | – | – | 738.3 | – | 375.8 | did not support growth | growth of G. haemolysans on the carbon source (in words) [6]: supported growth
O=C(O)[C@]1(O)C[C@@H](O)[C@@H](O)[C@H](O)C1 [Quinic Acid] | 92.0 | – | 68.3 | 255.3 | 1197.1 | – | – | –
C/C=C/C=C/C(=O)O [Sorbic Acid] | 56.2 | 82.4 | – | 495.2 | – | 90.3 | – | –
O=C(CO)[C@@H](O[C@H]1O[C@H](CO)[C@@H](O)[C@H](O)[C@H]1O)[C@H](O)[C@H](O)CO [Turanose] | – | 296.1 | 91.9 | 1146.9 | – | – | did not support growth | growth of R. dentocariosa on the carbon source (in words) [2]: stimulated only the growth
CO[C@@H]1O[C@H](CO)[C@@H](O)[C@H](O)[C@H]1O [β-Methyl-D-Glucoside] | 56.3 | 405.7 | 599.6 | 779.9 | – | – | did not support growth | growth of R. dentocariosa on the carbon source (in words) [2]: allowed growth; growth of R. mucilaginosa on the carbon source (in words) [3]: allowed growth
Dextrin | – | 135.6 | – | – | – | 66.1 | did not support growth | AUC of growth curve, S. aureus [4, 7]: 908.1; growth of R. dentocariosa on the carbon source (in words) [2]: stimulated only the growth
Maltotriose | 54.2 | 1276.1 | 1074.7 | 943.9 | – | – | did not support growth | growth of R. dentocariosa on the carbon source (in words) [2]: allowed growth; growth of R. mucilaginosa on the carbon source (in words) [3]: allowed growth
Tween 40 | – | – | – | 154.9 | – | 101.2 | – | –

Source: patent publication US20230293599A1, “BACTERIAL COMPOSITIONS WITH ANTI-INFLAMMATORY ACTIVITY” (Universiteit Gent, priority 2020, published 2023)
